Measured values as given in the NIST ThermoML archive (doi:10.1021/je7007582).
Numbers after ± are expanded uncertainties.

Conditions: Liquid; for mass density: 298.15 K, 101.33 kPa, Pycnometric method; for Normal boiling temperature: Ebulliometric method (Recirculating still)

SMILES	mass density [kg/m3]	Normal boiling temperature [°C]
CCCCO [butan-1-ol]	805.7 ± 0.7	
CC(C)O [propan-2-ol]	780.8 ± 0.7	82.2 ± 0.05
CCC(C)O (stereo not drawn) [butan-2-ol]	802.3 ± 0.7	99.48 ± 0.05
CCCO [propan-1-ol]	799.6 ± 0.7	97.06 ± 0.05
CC(C)CO [2-methyl-1-propanol]	797.8 ± 0.7	107.77 ± 0.05
CO [methanol]	786.6 ± 0.7	64.49 ± 0.05
CCO [ethanol]	785.2 ± 0.7	78.31 ± 0.05
